Laboratory results reported in patent US20240148745A1, “COMPOUNDS FOR USE IN PROGRESSIVE MULTIPLE SCLEROSIS” (FONDAZIONE CENTRO SAN RAFFAELE, priority 2021, published 2024).

Columns and labels:
[1] = test system: human iPS-derived neuroprecursors; experiment: Differentiation of human iPS-derived neuroprecursors into MBP+ oligodendrocytes; assay type: cell-based; settings: 1 μM in minimal medium, p<0.05
Source text: NPC bearing a doxycycline inducible polycistronic construct containing SOX10, OLIG2 and NKX6.2^29 in a human safe harbor (passages 10 to 25) were singularized on day −3 by treatment with Accutase and plated on Matrigel-coated 12-well plates at a density of 100.000 cells per well in N2B27-medium containing equal parts of neurobasal (Invitrogen) and DMEM-F12 medium (Invitrogen) with 1:100 B27 supplement lacking vitamin A (Invitrogen), 1:200 N2 supplement (Invitrogen), 1% penicillin/streptomycin/glutamine (PSG), 3 μM CHIR99021 (Axon Medchem), 150 μM ascorbic acid and 0.5 μM SAG. The next day medium was changed to N2B27-medium containing 1 μg/ml doxycycline. On DO medium was changed to glial-induction medium (GIM) consisting of DMEM-F12 with 1:100 B27 supplement lacking vitamin A, 1:200 N2 supplement, 1% PSG, 1 μM SAG, 10 ng/mL NT3 (Peprotech), 10 ng/mL IGF-I (Peprotech), 200 μM AA (Sigma), 1:1000 Trace Elements B (Corning). For full medium conditions 10 ng/ml T3 was added. On Day 2 medium was changed to glial-differentiation medium (GDM) comprising DMEM-F12 with 1:100 B27 supplement lacking vitamin A, 1:200 N2 supplement, 1% PSG, 100 μM dbCAMP (Sigma), 100 μM AA, 1:1000. For full medium conditions 60 ng/mL T3, Trace Elements B 10 ng/mL, IGF-I, 10 ng/mL and NT3 were added to the culture. GDM was changed every other day. On day 7 cells were detached by treatment with Accutase and re-plated on laminin coated 48-well plates at densities of 10.000-12.000 cells per well. After 24 h cells were treated in minimal medium with either vehicle alone [0.01% (vol/vol) DMSO] as a negative control, 60 ng/mL T3 as a positive control, or with a drug candidate dissolved in DMSO. Medium was changed every other day. On D16 doxycycline was removed from the medium. Cells were fixed on D21 and analyzed via immunocytochemistry.
Immunocytochemistry. Cells were initially fixed with 4% PFA treatment for 20 min, RT. Following three washes with PBS cells were incubated with blocking solution containing 5% normal goat serum (NGS) and 5% FCS (fetal calf serum) in PBS for 30 min at RT to prevent unspecific binding of the antibodies. To detect intracellular antigens cells were permeabilized by adding 0.5% Triton X-100 to the Blocking-solution. Cells treated with Triton X-100 were washed three times with PBS each time for 5 min at RT. Primary antibodies (rat anti-MBP,1:50, Abcam, AB7349) were applied overnight, 4° C., in blocking solution. The next day cells were washed 3 times with PBS at RT, and afterwards incubated with secondary antibodies (AF488 Alexa Fluor anti-rat (goat), 1:500, Jackson/Dianova, #112-545-167) diluted in PBS for 1 h at RT. Secondary antibodies were subsequently removed by washing 3 times with PBS. Afterwards PBS containing a Dapi staining for nuclei was added for 5 minutes and afterwards washed off with PBS. Cells were kept at 4° C. until imaging.
Imaging and evaluation. From each condition (triplicates) 20-30 pictures were taken randomly chosen by the Dapi-signal. Cell numbers were determined by using an ImageJ Macro to count the nuclei whereas MBP positive cells were subsequently counted manually in black and white images.
The effect on oligodendroglial differentiation of 32 compounds (“Front runners”) was tested. Induced pluripotent stem cells in which the transcription factors SOX10, OLIG2, NKX6.2 were inserted in a doxycycline inducible manner into a human safe harbor were differentiated into neural stem cells. Differentiation into oligodendrocytes was induced by addition of doxycycline. Cells were cultured either in a minimal medium (MM) (negative control) or in MM with the different compounds at a concentration of 1 μM. Addition of T3 to the minimal medium served as a positive control.

[2] = test system: rat oligodendrocyte progenitor CG4 line; experiment: Differentiation assay on rat oligodendrocyte progenitor CG4 line (HCS, mCherry+); assay type: cell-based; settings: secondary screen of 49 selected compounds, 1 μM, 5 days
Source text: Primary validation on CG4 line toxicity and differentiation. An innovative OPC line was developed for fast and reliable high content screening (HCS) of small compounds inducing oligodendrocyte differentiation. The line was genetically engineered by lentiviral transduction of rat CG4 cells (PubMed=1613821; DOI=10.1002/jnr.490310125; Louis J. C., Magal E., Muir D., Manthorpe M., Varon S.; CG-4, a new bipotential glial cell line from rat brain, is capable of differentiating in vitro into either mature oligodendrocytes or type-2 astrocytes. J. Neurosci. Res. 31:193-204(1992) to express mCherry fluorescent reporter (Evercooren, Anne & Avellana-Adalid, V. & Vitry, Sandrine & Nait-Oumesmar, Brahim & Lachapelle, Francois. (1997). Expansion of Oligodendrocyte Progenitors for Myelin Repair. 10.1007/978-1-4615-5949-8_21) in mature oligodendrocytes only, and EGFP at all stage of the oligodendroglial lineage: both the generation of mature oligodendrocytes (wmNl-mCherry) and the morphological changes associated with differentiation (CMV-EGFP) can be therefore monitored in a single assay. mCherry expression occurred only in O4+/GalC+ differentiated oligodendrocytes and GFP was ubiquitously expressed at all developmental stages. The line so obtained was validated using compounds with well-established effects on oligodendrocyte differentiation (cAMP and T3). Cell-based assay was standardized on the HCS platform (ArrayScanXTI, Brain and Spine Institute (Paris), validating the pro-differentiation effects of clemastine^27 and 9cis-retinoic acid.^28 For HCS validation of 274 compounds identified through in silico screen, double-fluo CG4 line cells were plated in 96 well-plates, 6500 cells/cm^2 and left for 24 h in proliferation. The other day, compounds were added (1 μM) for next 5 days of differentiation, with ⅔ medium changed after 3 days. 9-cis Retinoic Acid (9cis-RA; […]) served as a positive control, negative controls were basal (N1) medium and vehicle (basal+0.1% DMSO). Each compound was tested in triplicate and were imaged with ArrayScanXTI system (35 fields/well) after 5 days of differentiation.
FIG. 4 provides a schematic representation of High Content Screening (HCS) validation of the 274 compounds identified through in silico screening using CG4 line. […] In addition, the whole short list of 160 non-toxic compounds were screened using the CG4 high content phenotypic assay to further confirm the data from primary screening and to potentially select additional compounds with pro-myelinating activities. From this screening of the short list, 49 hit compounds were identified that increase differentiation either of CG4 cells or primary OPCs (FIG. 6).

[3] = test system: primary murine spinal cord culture; experiment: Myelinating cell cultures from primary murine spinal cord; assay type: cell-based, mouse; settings: 1 μM
Description: Single cell suspensions are prepared from spinal cord of mouse embryos (E13) (adapted from Thomson, 2008) and 1.5×10^5 cells/well were plated into 96 well plates. Over time, these cultures mature and form axons, which later myelinate. Using spinal cord tissue facilitates the quantification of mature MBP+ oligodendrocytes and newly formed myelin by in-house high-content imaging system (Operetta High Content Imaging System, Perkin Elmer) with a 20× lens. From each well, 25 fields in a 5×5 matrix were scanned. Thirty-two “Front Runners” compounds were tested in replicates of five at 1 μM/DMSO, while T3, benzotropine and clemastine were used as positive controls, DMSO as negative/solvent control. Two experimental paradigms were applied: “Early treatment”: exposure to experimental agent from DIV7 to DIV14; “Late treatment”: exposure to experimental agent from DIV14-DIV21. On DIV21, cultures were fixed and stained (myelin: MBP, axons: NF200; nuclei: Hoechst). Imaging data were analysed using CellProfiler and in-house generated analysis pipeline.
Thirty-two “Front Runners” compounds were tested in replicates of five at 1 μM/DMSO, while T3, benztropine and clemastine were used as positive controls, DMSO as negative/solvent control. Two experimental paradigms were applied: “Early treatment”: exposure to experimental agent from DIV7 to DIV14; “Late treatment”: exposure to experimental agent from DIV14-DIV21. […] In “Late treatment” paradigm in myelin area evaluation were identified Vanoxerine, Roxadustat, Tamibarotene, Drinabant, Progesterone, Saracatinib. In quantification of myelinated axons were identified Vanoxerine, Drinabant, Roxadustat.

rat primary OPC cultures = experiment: Differentiation of rat primary OPC into MBP+ OLs; assay type: cell-based; settings: 96 h, 4 days of differentiation, read-out: MBP+ differentiation (MBP+/SOX10+ OLs plus compounds / plus basal medium)
Description: Secondary validation on primary rat OPC differentiation. Re-validation of the best performing compounds promoting OPC differentiation (fold change >1.5) was performed on primary rat OPC cultures in 96 well-plate run in triplicates by triple immunolabeling for CNPase, MBP and SOX10 as a readout. Compounds at […] were added for 4 days of differentiation and then cell cultures were imaged with ArrayScanXTI platform, number of MBP+OLs were quantified by semi-automated software. Basal medium served as a negative control, 9 cis-RA ([…]) was a positive control.
Re-validation of the 49 compounds selected from the short list (160 compounds) using rat primary OPC cultures (compounds tested in triplicates in 3 independent experiments. The secondary validation screen of these compounds performed on rat primary OPC cultures selected 17 best lead compounds with a pro-differentiation activity (MBP+/SOX10+OLs plus compounds/MBP+SOX10+ plus basal medium fold increase) induced a strong differentiation into MBP+OLs (fold increase >1.6). Results are shown in FIG. 7.

SMILES | differentiation into MBP+ oligodendrocytes [1] | CG4 differentiation compared with 9cis-RA positive control [2] | myelin area ([3]; Early treatment DIV7 to DIV14) | myelin area ([3]; Late treatment DIV14-DIV21) | quantification of myelinated axons ([3]; Late treatment DIV14-DIV21) | differentiation into MBP+ oligodendrocytes ([1]; listed as Drinibant) | fold induction at 1 µM (rat primary OPC cultures) | quantification of myelinated axons ([3]; Early treatment DIV7 to DIV14)
Cc1c(F)cccc1NC(=O)Nc1ccc(Cl)c(S(=O)(=O)[C@H]2CCCNC2)c1O [Danirixin] | promote significantly (p<0.05) the differentiation into MBP+ oligodendrocytes | promoting differentiation significantly higher than 9cis-RA positive control |  |  |  |  |  | 
CS(=O)(=O)N(c1cc(F)cc(F)c1)C1CN(C(c2ccc(Cl)cc2)c2ccc(Cl)cc2)C1 [Drinabant] | promote significantly the differentiation into MBP+ oligodendrocytes | promoting differentiation significantly higher than 9cis-RA positive control | identified | identified | identified | promote significantly (p<0.05) the differentiation into MBP+ oligodendrocytes |  | 
Cc1ccc(C(=O)Nc2ccc(Oc3cc4cnn(C)c4cc3-c3cn[nH]c3)c(F)c2)c(=O)n1-c1ccc(F)cc1 [Merestinib] | promote significantly (p<0.05) the differentiation into MBP+ oligodendrocytes | promoting differentiation significantly higher than 9cis-RA positive control |  |  |  |  |  | 
CCNC(=O)C1CC(F)(c2ccc(CN3CCCC3)c(F)c2)C1 (stereo not drawn) [PF-03654746] | promote significantly (p<0.05) the differentiation into MBP+ oligodendrocytes | promoting differentiation significantly higher than 9cis-RA positive control | identified |  |  |  |  | 
CCC/N=C1\S/C(=C\c2ccc(OC[C@H](O)CO)c(Cl)c2)C(=O)N1c1ccccc1C [Ponesimod] | promote significantly (p<0.05) the differentiation into MBP+ oligodendrocytes | promoting differentiation significantly higher than 9cis-RA positive control | identified |  |  |  |  | 
CNC(=O)c1cc(COc2nnc(Nc3ccc(Cl)cc3)c3ccoc23)ccn1 [Telatinib] | promote significantly (p<0.05) the differentiation into MBP+ oligodendrocytes | promoting differentiation significantly higher than 9cis-RA positive control |  |  |  |  | > 1.6 | 
Fc1ccc(C(OCCN2CCN(CCCc3ccccc3)CC2)c2ccc(F)cc2)cc1 [Vanoxerine] |  | promoting differentiation significantly higher than 9cis-RA positive control | identified | identified | identified |  |  | identified
